Patent US8765641B2, “Chip production, hybridization and data interpretation for antibody and protein microarrays” (Detroit R&D, Inc., priority 2004, dated 2014)
“And” between values parts separate entries of the source, which are not always exact repeats. Equal entries are not always repeated. Where two headings read alike, the source gives them in different places. Marks after values point to notes of the source that are not given here.

Columns and labels:
CYP3A (CYP3A1/2/23) = conditions: anti-serum spots, IgG concentration not given
Alpha-actin = conditions: rat hepatic proteins after PB treatment; 500 μg/ml IgG (ascites fluid); Flag internal control
Tubulin-alpha = conditions: rat hepatic proteins after PB treatment, 500 μg/ml IgG (ascites fluid), Flag internal control
CYP2B1/2B2 = experiment: Western blot analysis of rat hepatic proteins after PB treatment; type: in vivo; set-up: key: Highly Induced: Not detected in control but strong band after PB treatment.; Moderately Induced: Not detected in control but bands with a medium intensity detected after PB treatment; conditions: rat hepatic microsomal proteins, PB treated vs control
Method: (§1) SDS-PAGE was carried out on 10% or 15% gels. The separated proteins were electroblotted onto cellulose membrane and Western blot analyses were carried out using horseradish peroxidase-system with electrochemiluminescent substrates.
(§2) This microarray result was obtained by combining results from Control 1 and PB 1 assays and Control 2 and PB 2 assays. Expression levels of CYP2B1/2B2, CYP2B1, COX-2, CYP2D, CYP3A1/2/23, CYP2C11 and G3PDH in Rat #1 (Control 1), Rat #2 (PB 1), Rat #3 (Control 2) and Rat #4 (PB 2) were verified by Western blot analyses of microsomal and cytosolic proteins. Protein bands obtained by Western blot analyses were quantitated using a densitometer (Molecular Dynamics). […] COX-2 expression usually detected in microsomes also detected in cytosol. The cytosolic COX-2 levels were normalized by G3PDH levels.

CYP3A = experiment: as above; type: in vivo; conditions: rat hepatic microsomal proteins, PB treated vs control; two sets; mean and difference from the mean
Method: as §1, §2

CYP2D = experiment: as above; type: in vivo; conditions: rat hepatic microsomal proteins, PB treated vs control; two sets; mean and difference from the mean
Method: as §1, §2

Tubulin-beta = conditions: rat hepatic proteins after PB treatment; 500 μg/ml IgG; Flag internal control

CCC1(c2ccccc2)C(=O)NC(=O)NC1=O [phenobarbital]
CYP3A expression after phenobarbital treatment, array analysis (CYP3A (CYP3A1/2/23)): increased higher than two-fold | Fold-Change of Protein Expression Level, Alpha-actin (Alpha-actin): 0.8 fold | Fold-Change of Protein Expression Level, Tubulin-alpha (Tubulin-alpha): 1.7 fold and 1.7^a fold | Fold-Change of Protein Expression Level, Tubulin-alpha (Tubulin-alpha; listed as PB): 1.7 fold | fold-increase of protein expression level, Western Blot Analysis, CYP2B1/2B2 (CYP2B1/2B2): Highly Induced^b | fold-increase of protein expression level, Western Blot Analysis, CYP3A (CYP3A): 7.00 ± 4.80^d fold | fold-increase of protein expression level, Western Blot Analysis, CYP2D (CYP2D): failed to increase | Fold-Change of Protein Expression Level, Tubulin-beta (Tubulin-beta): 0.7 fold
